One series relates to cannabinoid receptors. The conditions noted are these: natural (trans) THC versus its cis counterpart; cited from earlier work.
For `CCCCCc1cc(O)c2c(c1)OC(C)(C)[C@@H]1CCC(C)=C[C@@H]21` [THC, trans-Δ^9 -tetrahydrocannabinol], the “affinity for cannabinoid receptors” value is on record as “higher affinity”.

System in a further series: not given
Conditions: not given
For orientation: melting point means the temperature of the solid-liquid transition. In turn, `COC(=O)C1=CCC(C(C)(C)C)=CC1c1c(F)c(F)c(C#N)c(F)c1F` (centres unmarked) had a melting point of 108 to 110 °C. `CC1=CC(c2c(F)c(F)c(C#N)c(F)c2F)C(C#N)=CC1` (centres unmarked) showed a melting point of 117 to 120 °C. As to `COC(=O)C1=CCC(C)=CC1c1c(F)c(F)c(C(=O)OC)c(F)c1F` (centres unmarked), the melting point lay in the range of 91 to 95 °C.

In the case of `COC(=O)C1=CCC(C(C)(C)C)=CC1c1c(F)c(F)nc(F)c1F` (centres unmarked), the melting point was 59 to 60 °C. In turn, `COC(=O)C1=CCC(C)=CC1c1c(F)c(F)nc(F)c1F` (centres unmarked) had a melting point of 93 to 96 °C. The same measure, in the same setting: the figure for `COC(=O)C1=CCC(C)=CC1c1c(F)c(F)c(C(F)(F)F)c(F)c1F` (centres unmarked) is 104 to 105 °C; for `COC(=O)C1=CCC(OC(=O)OC(C)(C)C)=CC1c1c(F)c(F)c(C#N)c(F)c1F` (centres unmarked) it is 104 to 105 °C.

These data come from US20240067621A1, “POLYFLUORINATED CANNABINOID AND CANNABINOID-LIKE COMPOUNDS AND METHODS OF SYNTHESIS AND USE THEREOF” (The Board of Regents For The Oklahoma Agricultural And …, priority 2021, published 2024).
